Several values for one entry are separate records, joined by “and”; a condition that tells them apart may be missing. Equal values may be shown once. Read-outs that look alike come from different tables or passages of the source.
Columns and labels:
[1] = parameters: method as in Bick et al., 2002; Bi et al., 2016; conditions: ref Bick et al., 2002, Bi et al., 2016; cited from earlier work
MDCK II cells = test: Cellular uptake (intracellular accumulation) in MDCK II cells; format: in vitro ADME, canine; conditions: verapamil 100 μM, 2 h
Protocol: (§1) Madin Darby canine kidney (MDCK II) cells stably transfected with multidrug resistance 1 gene (MDCK-MDR1 cells) were conducted and used in cinobufotalin uptake studies. Wild type MDCK II or MDCK-MDR1 cells were seeded into six-well plates at the destiny of 2 × 10^5 cells/well and maintained at 37°C under 5% CO2 in DMEM with 10% FBS. The well-known P-gp inhibitor, verapamil (100 μM), was used as the positive control to evaluate the effect of P-gp on cinobufotalin uptake ([Bicker et al., 2017]).
(§2) The uptake experiment was performed when the cells reached 100% confluency. First, cells were washed three times using 37°C Hanks’ balanced salt solution (HBSS) buffer (pH = 7.2). Then, 2 mL HBSS (37°C, pH = 7.2) buffer containing cinobufotalin (5 and 20 μM) were added and incubated with cells in the absence or presence of potential P-gp inhibitors, verapamil (100 μM). After incubation for 2 h, the incubation medium was removed, and cells were washed three times using ice-cold HBSS buffer. Then 400 μL of ice-cold MeOH:H2O (1:1, v/v) were added into each well, the cells were collected and sonicated for 15 min in ice-cold water. The mixture was centrifuged at 4°C (12,000 g, 10 min), and the supernatant was subjected to UPLC-QTOF/MS for analyses.

[2] = Stability in 50% acetonitrile solution; format: physicochemical
Protocol: In addition, the stabilities of cinobufotalin at 20, 200, and 2000 ng/mL in different storage conditions were evaluated, including short term stability (such as 25°C for 4, 8, 12, and 24 h and 4°C for 4, 8, 12, and 24 h), long term stability (-80°C for 10 days) and three freeze-thaw cycles in rat plasma. Stabilities were expressed as the concentrations after different operations to the concentration at time zero. All of the samples were processed as described in Preparation of rat plasma samples section. A 5 μL aliquot was injected to UPLC-QTOF/MS for analyses.
In addition, we also evaluated the stability of cinobufotalin in 50% accetonitrile solution at 4°C and room temperature (25°C) after storage for 4, 8, 12, and 24 h.

P-glycoprotein (P-gp) = molecular target: T1, P-glycoprotein (P-gp) (Homo sapiens, UniProt P08183); test: Cellular uptake (intracellular accumulation) in MDCK-MDR1 cells; format: in vitro ADME; conditions: 2 h; for increase of intracellular accumulation of cinobufotalin by verapamil: MDCK-MDR1 cells, verapamil 100 μM
T1 construct: expressed in transfected cells; host or cells: MDCK II (Madin Darby canine kidney) cells stably transfected with the MDR1 gene
T1 sequence (P08183 whole entry): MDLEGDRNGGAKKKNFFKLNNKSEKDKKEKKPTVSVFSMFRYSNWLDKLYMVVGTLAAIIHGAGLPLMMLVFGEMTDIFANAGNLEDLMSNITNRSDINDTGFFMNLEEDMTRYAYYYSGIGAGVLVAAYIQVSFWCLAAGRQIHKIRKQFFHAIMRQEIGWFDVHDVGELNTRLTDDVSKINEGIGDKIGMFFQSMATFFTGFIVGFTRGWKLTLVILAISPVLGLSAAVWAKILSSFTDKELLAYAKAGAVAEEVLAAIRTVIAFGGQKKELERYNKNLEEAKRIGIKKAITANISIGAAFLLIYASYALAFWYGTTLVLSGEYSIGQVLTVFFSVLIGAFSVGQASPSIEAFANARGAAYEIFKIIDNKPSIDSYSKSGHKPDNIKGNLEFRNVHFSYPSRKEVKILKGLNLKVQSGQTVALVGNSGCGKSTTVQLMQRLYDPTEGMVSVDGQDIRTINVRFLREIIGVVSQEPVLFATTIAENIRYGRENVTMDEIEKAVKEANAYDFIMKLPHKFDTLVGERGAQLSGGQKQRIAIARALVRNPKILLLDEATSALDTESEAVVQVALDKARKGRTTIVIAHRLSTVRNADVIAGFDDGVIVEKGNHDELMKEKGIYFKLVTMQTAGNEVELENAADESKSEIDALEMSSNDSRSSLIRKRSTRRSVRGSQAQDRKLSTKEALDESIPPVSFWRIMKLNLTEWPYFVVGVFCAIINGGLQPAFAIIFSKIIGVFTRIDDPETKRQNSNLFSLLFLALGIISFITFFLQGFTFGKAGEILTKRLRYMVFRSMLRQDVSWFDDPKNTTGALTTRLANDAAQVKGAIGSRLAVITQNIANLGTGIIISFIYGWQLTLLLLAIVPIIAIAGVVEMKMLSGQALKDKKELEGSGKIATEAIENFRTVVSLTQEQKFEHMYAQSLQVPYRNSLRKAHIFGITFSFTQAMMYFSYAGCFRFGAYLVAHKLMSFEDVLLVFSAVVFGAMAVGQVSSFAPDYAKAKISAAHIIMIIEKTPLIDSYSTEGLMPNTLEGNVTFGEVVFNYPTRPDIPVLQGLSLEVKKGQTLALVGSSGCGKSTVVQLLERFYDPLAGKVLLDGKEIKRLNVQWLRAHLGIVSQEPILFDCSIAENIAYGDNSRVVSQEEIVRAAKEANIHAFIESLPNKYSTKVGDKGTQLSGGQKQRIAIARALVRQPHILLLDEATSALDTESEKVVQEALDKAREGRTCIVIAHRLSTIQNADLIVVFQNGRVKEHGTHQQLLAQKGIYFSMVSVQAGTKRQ
Protocol: as §1, §2

[3] = Pharmacokinetic study after i.v. injection in normal and DEN-injured rats; format: in vivo, Sprague Dawley rats; conditions: i.v. 2.5 mg/kg, two-compartment model; for AUC / C0 / clearance / half-life: male, Sprague Dawley, rat, plasma, iv; for half-life: read-out: t1/2β (converted)
Protocol: Male Sprague Dawley rats (200–220 g), used for pharmacokinetic (PK) studies, were purchased from Beijing Vital River Laboratory Animal Technology Co., Ltd. (Beijing, China). All animals were housed under standardized condition (12 h light/dark schedule), and they were kept 1 week prior to experiments for acclimation. All animal experiments were carried out in accordance with the National Institutes of Health guide for the care and use of Laboratory animals (NIH Publications No. 8023, revised 1978) and were approved by the Medical and Research Ethics Committee of College of Medicine, Henan University.
For PK studies, the rats were randomly divided into two experimental groups (10 rats for normal rats group and 20 rats for DEN-injured rats group, considering the animal casualties during the modeling process). HCC rat model was established by intraperitoneal administration of 50 mg/kg DEN two times per week ([Fuchs et al., 2014]), and the control group rats were treated with normal saline in the same way. After 14 weeks of administration, three rats were randomly selected and anesthetized by anesthesia cocktail (Ketamine 50 mg/mL, Xylazine 3.3 mg/mL and Acetopromazine 3.3 mg/mL). Then the liver was taken out and photographed to determine whether the animal model was successfully constructed.
Before PK experiment, a cannula was introduced into the jugular vein of the anesthetized rat and administrated carprofen subcutaneously after the surgery. After observation for 24 h, when the activity and excretion of rats were normal, rats were dosed with cinobufotalin at 2.5 mg/kg through jugular vein cannula. Blood samples (200 μL) were withdrawn at each pointed time (5, 10, 15, 30, 45 min, and 1, 1.5, 2, 4, 6, 8, 12, and 24 h) after dosing, and whole blood was transferred into tubes pre-treated with heparin (1000 U/mL). Then an equal volume of saline was injected into rats through jugular vein cannula immediately. The blood samples were immediately centrifuged at 4°C (8000 g, 10 min) to obtain the plasma, and the plasma samples were stored at -80°C until analysis. After sampling at the last time point, all rats were anesthetized immediately. Blood was washed out with ice-cold saline through the hepatic portal vein, and then liver tissues were removed, weighed and stored at -80°C until analysis.
Hundred microliter of plasma was transferred to a new clean tube, and samples were treated with protein precipitation assay as described in Preparation of rat plasma samples section. Then calibration curve was prepared to quantify the amount of cinobufotalin in plasma samples according to the steps as described in method validation part.
PK and statistical data analyses were performed using WinNonlin 3.3. The two-compartment model (two-compartment i.v.-Bolus, macro-constants, no lag time, first order elimination, Figure 2) was selected to obtain the PK parameters of cinobufotalin in rats. The model equation was as followed:
(3) C(t)=A∗EXP(−Alpha∗t)+B∗EXP(−Beta∗t)

For `CC(=O)O[C@H]1[C@H]2O[C@]23[C@@H]2CC[C@]4(O)C[C@@H](O)CC[C@]4(C)[C@H]2CC[C@]3(C)[C@H]1c1ccc(=O)oc1` [Cinobufotalin], the “toxicity on over dose” value [1] is listed as “cardiotoxicity and neurotoxicity”, the “effect of verapamil on the intracellular accumulation of cinobufotalin” value (MDCK II cells) is listed as “did not alter” and the “Stability in 50% Acetonitrile solution, 4°C, 4 h” value ([2]; 20 ng/mL) is listed as 97.5 ± 5.7%. The “Stability in 50% Acetonitrile solution, 4°C, 8 h” value ([2]; 20 ng/mL) was 101.9 ± 3.6%, the “Stability in 50% Acetonitrile solution, 4°C, 12 h” value ([2]; 20 ng/mL) was 99.1 ± 2.5% and the “Stability in 50% Acetonitrile solution, 4°C, 24 h” value ([2]; 20 ng/mL) was 100.4 ± 2.7%. For the same compound, the “Stability in 50% Acetonitrile solution, 25°C, 4 h” value ([2]; 20 ng/mL) was 99.5 ± 4.4%, the “Stability in 50% Acetonitrile solution, 25°C, 8 h” value ([2]; 20 ng/mL) was 97.1 ± 2.3% and the “Stability in 50% Acetonitrile solution, 25°C, 12 h” value ([2]; 20 ng/mL) was 97.7 ± 4.6%. For the same compound, the “Stability in 50% Acetonitrile solution, 25°C, 24 h” value ([2]; 20 ng/mL) was 95.5 ± 4.3%, the “Stability in 50% Acetonitrile solution, 4°C, 4 h” value ([2]; 200 ng/mL) was 102.6 ± 6.8% and the “Stability in 50% Acetonitrile solution, 4°C, 8 h” value ([2]; 200 ng/mL) was 99.5 ± 4.0%. For the same compound, the “Stability in 50% Acetonitrile solution, 4°C, 12 h” value ([2]; 200 ng/mL) was 97.4 ± 2.9%, the “Stability in 50% Acetonitrile solution, 4°C, 24 h” value ([2]; 200 ng/mL) was 96.7 ± 2.6% and the “Stability in 50% Acetonitrile solution, 25°C, 4 h” value ([2]; 200 ng/mL) was 100.1 ± 2.8%. The “Stability in 50% Acetonitrile solution, 25°C, 8 h” value ([2]; 200 ng/mL) was 101.2 ± 2.0%, the “Stability in 50% Acetonitrile solution, 25°C, 12 h” value ([2]; 200 ng/mL) was 99.5 ± 4.3% and the “Stability in 50% Acetonitrile solution, 25°C, 24 h” value ([2]; 200 ng/mL) was 99.0 ± 2.8%. For the same compound, the “Stability in 50% Acetonitrile solution, 4°C, 4 h” value ([2]; 2000 ng/mL) was 102.0 ± 5.0%, the “Stability in 50% Acetonitrile solution, 4°C, 8 h” value ([2]; 2000 ng/mL) was 103.7 ± 3.5% and the “Stability in 50% Acetonitrile solution, 4°C, 12 h” value ([2]; 2000 ng/mL) was 96.3 ± 4.0%. The “Stability in 50% Acetonitrile solution, 4°C, 24 h” value ([2]; 2000 ng/mL) was 97.9 ± 2.5%, the “Stability in 50% Acetonitrile solution, 25°C, 4 h” value ([2]; 2000 ng/mL) was 100.3 ± 3.0% and the “Stability in 50% Acetonitrile solution, 25°C, 8 h” value ([2]; 2000 ng/mL) was 99.1 ± 1.1%. The “Stability in 50% Acetonitrile solution, 25°C, 12 h” value ([2]; 2000 ng/mL) was 98.4 ± 3.5%, the “Stability in 50% Acetonitrile solution, 25°C, 24 h” value ([2]; 2000 ng/mL) was 100.5 ± 3.3% and the “intracellular amount of cinobufotalin in MDCK II cells compared with MDCK-MDR1 cells” value (P-glycoprotein (P-gp); 5 and 20 μM) was “obviously higher”. The “increase of intracellular accumulation of cinobufotalin by verapamil” value (P-glycoprotein (P-gp); cinobufotalin 5 μM) was 4.0 fold, the “increase of intracellular accumulation of cinobufotalin by verapamil” value (P-glycoprotein (P-gp); cinobufotalin 20 μM) was 3.5 fold and the CL2 ([3]; DEN-injured rats) was 135 ± 28.3 mL/min/kg. For the same compound, the K10 ([3]; DEN-injured rats) was 1.0 ± 0.3^* 1/h, the K21 ([3]; DEN-injured rats) was 0.3 ± 0.1 h⁻¹ and the V ([3]; DEN-injured rats) was 2.4 ± 0.6 L/kg. For the same compound, the V2 ([3]; DEN-injured rats) was 31.5 ± 10.4 L/kg, the K12 ([3]; DEN-injured rats, 2.5 mg/kg) was 3.2 ± 0.8 h⁻¹ and the t1/2α ([3]; DEN-injured rats, 2.5 mg/kg) was 0.2 ± 0.1 h. The AUC ([3]; 2.5 mg/kg, DEN-injured rats) was 1100 ± 300 ng·h/mL, the C0 ([3]; 2.5 mg/kg, DEN-injured rats) was 1100 ± 300 ng/mL and the clearance ([3]; 2.5 mg/kg, DEN-injured rats) was 40 mL/min/kg. For the same compound, the half-life ([3]; 2.5 mg/kg, DEN-injured rats) was 13.4 ± 5.8 h, the AUC ([3]; 2.5 mg/kg, normal rats) was 2600 ± 500 ng·h/mL and the C0 ([3]; 2.5 mg/kg, normal rats) was 1400 ± 400 ng/mL. For the same compound, the clearance ([3]; 2.5 mg/kg, normal rats) was 16.7 mL/min/kg, the half-life ([3]; 2.5 mg/kg, normal rats) was 13.2 ± 1.3 h and the CL2 ([3]; normal rats) was 55 ± 6.7 mL/min/kg. For the same compound, the K10 ([3]; normal rats) was 0.5 ± 0.2 h⁻¹, the K21 ([3]; normal rats) was 0.3 ± 0 h⁻¹ and the V ([3]; normal rats) was 2.1 ± 0.6 L/kg. For the same compound, the V2 ([3]; normal rats) was 13.1 ± 1.3 L/kg, the t1/2α ([3]; normal rats) was 0.3 ± 0.1 h and the K12 ([3]; normal rats, 2.5 mg/kg) was 1.8 ± 0.5 h⁻¹ and 1.8 ± 0.8 h⁻¹.

— publication PMC6533572, “Elucidation of the Differences in Cinobufotalin’s Pharmacokinetics Between Normal and Diethylnitrosamine-Injured Rats: The Role of P-Glycoprotein” (Frontiers in Pharmacology, 2019)
